Reference: article PMC6100079, “Design, Synthesis, and Evaluation of Homochiral Peptides Containing Arginine and Histidine as Molecular Transporters” (Molecules : A Journal of Synthetic Chemistry and Natural …, 2018)
Ends that are not written are not given here. Peptide text beside a SMILES is read from it. * marks the point of attachment. Oleoyl = CCCCCCCC/C=C\CCCCCCCC(=O)*; HOOC(CH2)6CO = O=C(O)CCCCCCC(=O)*; Palmitoyl = CCCCCCCCCCCCCCCC(=O)*; Myristoyl = CCCCCCCCCCCCCC(=O)*; Lauroyl = CCCCCCCCCCCC(=O)*

Tests used:
[1] = tested on: human ovarian adenocarcinoma (SK-OV-3) cells; experiment: Cytotoxicity (MTS proliferation assay) of peptides in SK-OV-3 cells; assay type: cell-based
Procedure: (§1) All bioassays were performed in triplicate.
(§2) The linear and cyclic peptides at concentrations (5, 10, 25, 50 and 100 µM) were added to the cells and incubated at 37 °C with 5% carbon dioxide for 72 h. After 72 h of incubation, the pH of media were tested. […] Then 20 µL of MTS reagent was added to each well. […] The […] of the formazan product was measured at 490 nm using a Spectra Max M2 microplate spectrophotometer. The percentage of cell survival was calculated as [(OD value of cells treated with the test mixture of compounds) − (OD value of culture medium)]/[(OD value of control cells) − (OD value of culture medium)] × 100%.

[2] = tested on: human leukemia cancer cell line (CCRF-CEM); experiment: Cytotoxicity (MTS proliferation assay) of peptides in CCRF-CEM cells; assay type: cell-based
Procedure: as §1, §2

CCRF-CEM cells = experiment: Antiproliferative assay of anticancer drugs using C20-(HR)4 in CCRF-CEM cells; details: drug 5 µM + C20-(HR)4 50 µM, 72 h, vs drug alone
SK-OV-3 cells = experiment: Antiproliferative assay of anticancer drugs using C20-(HR)4 in SK-OV-3 cells; assay type: cell-based, human; details: SK-OV-3 (for doxorubicin, epirubicin per b1 and b46; not restated for the 1.5 fold sentence); drug 5 µM + C20-(HR)4 50 µM; 72 h; vs drug alone
Procedure: as §1

[3] = SK-OV-3, up to / at 50 µM peptide

Compound | cytotoxicity (in words) [1, 3] | cytotoxicity (in words) ([2]; up to / at 50 µM peptide) | cytotoxicity (in words) ([1]; SK-OV-3, 100 µM peptide) | cytotoxicity (in words) ([2]; 100 µM peptide) | further results
Ac-HRHRHRHR [C2-(HR)4] | not toxic | not toxic |  |  | 
CCCCCCCCCCCCCC(=O)N[C@@H](Cc1c[nH]cn1)C(=O)N[C@@H](CCCNC(=N)N)C(=O)N[C@@H](Cc1c[nH]cn1)C(=O)N[C@@H](CCCNC(=N)N)C(=O)N[C@@H](Cc1c[nH]cn1)C(=O)N[C@@H](CCCNC(=N)N)C(=O)N[C@@H](Cc1c[nH]cn1)C(=O)N[C@@H](CCCNC(=N)N)C(=O)O [C14-(HR)4] (Myristoyl-HRHRHRHR-OH) | not toxic | not toxic | mild cytotoxicity | mild cytotoxicity | cytotoxicity (in words) ([1]; SK-OV-3, up to / at 50 µM peptide, listed as C14): did not show cytotoxicity; cytotoxicity (in words) ([2]; up to / at 50 µM peptide, listed as C14): did not show cytotoxicity
CCCCCCCCCCCCCCCC(=O)N[C@@H](Cc1c[nH]cn1)C(=O)N[C@@H](CCCNC(=N)N)C(=O)N[C@@H](Cc1c[nH]cn1)C(=O)N[C@@H](CCCNC(=N)N)C(=O)N[C@@H](Cc1c[nH]cn1)C(=O)N[C@@H](CCCNC(=N)N)C(=O)N[C@@H](Cc1c[nH]cn1)C(=O)N[C@@H](CCCNC(=N)N)C(=O)O [C16-(HR)4] (Palmitoyl-HRHRHRHR-OH) | significant reduction in the cell viability | significant reduction in the cell viability |  |  | reduction in cell viability ([1]; SK-OV-3 (sentence speaks of both cell lines), 50 and 100 µM peptide, respectively, 72 h, MTS): 35–70%; cytotoxic effect / reduction of proliferation ([1]; SK-OV-3, 10 µM peptide, 72 h, MTS): 0%; reduction of proliferation ([1]; SK-OV-3, 50 µM peptide): 11%; cytotoxic effect ([2]; 10 µM peptide, 72 h, MTS): 0%
CCCCCCCCCCCC(=O)N[C@@H](Cc1c[nH]cn1)C(=O)N[C@@H](CCCNC(=N)N)C(=O)N[C@@H](Cc1c[nH]cn1)C(=O)N[C@@H](CCCNC(=N)N)C(=O)N[C@@H](Cc1c[nH]cn1)C(=O)N[C@@H](CCCNC(=N)N)C(=O)N[C@@H](Cc1c[nH]cn1)C(=O)N[C@@H](CCCNC(=N)N)C(=O)O [C12-(HR)4] (Lauroyl-HRHRHRHR-OH) | not toxic | not toxic | mild cytotoxicity | mild cytotoxicity | cytotoxicity (in words) ([1]; SK-OV-3, up to / at 50 µM peptide, listed as C12): did not show cytotoxicity; cytotoxicity (in words) ([2]; up to / at 50 µM peptide, listed as C12): did not show cytotoxicity
COc1cc([C@@H]2c3cc4c(cc3[C@@H](O[C@@H]3O[C@@H]5CO[C@@H](C)O[C@H]5[C@H](O)[C@H]3O)[C@H]3COC(=O)[C@H]23)OCO4)cc(OC)c1O [etoposide] |  |  |  |  | improvement of the drug's anti-proliferating potency by C20-(HR)4 (CCRF-CEM cells): did not improve; improvement of the drug's anti-proliferation potency / toxicity upon loading (physical mixture) with C20-(HR)4 (SK-OV-3 cells): one and half
N=C(N)NCCC[C@H](NC(=O)[C@H](Cc1c[nH]cn1)NC(=O)[C@H](CCCNC(=N)N)NC(=O)[C@H](Cc1c[nH]cn1)NC(=O)[C@H](CCCNC(=N)N)NC(=O)[C@H](Cc1c[nH]cn1)NC(=O)[C@H](CCCNC(=N)N)NC(=O)[C@H](Cc1c[nH]cn1)NC(=O)CCCCCCC(=O)O)C(=O)O [C8-(HR)4] ({HOOC(CH2)6CO}-HRHRHRHR-OH) | not toxic | not toxic | mild cytotoxicity | mild cytotoxicity | cytotoxicity (in words) ([1]; SK-OV-3, up to / at 50 µM peptide, listed as C8): did not show cytotoxicity; cytotoxicity (in words) ([2]; up to / at 50 µM peptide, listed as C8): did not show cytotoxicity
CC(=O)O[C@H]1C(=O)[C@@]2(C)[C@H]([C@H](OC(=O)c3ccccc3)[C@]3(O)C[C@H](OC(=O)[C@H](O)[C@@H](NC(=O)c4ccccc4)c4ccccc4)C(C)=C1C3(C)C)[C@]1(OC(C)=O)CO[C@@H]1C[C@@H]2O [paclitaxel] |  |  |  |  | improvement of the drug's anti-proliferating potency by C20-(HR)4 (CCRF-CEM cells): did not improve
CCCCCCCC/C=C\CCCCCCCC(=O)N[C@@H](Cc1c[nH]cn1)C(=O)N[C@@H](CCCNC(=N)N)C(=O)N[C@@H](Cc1c[nH]cn1)C(=O)N[C@@H](CCCNC(=N)N)C(=O)N[C@@H](Cc1c[nH]cn1)C(=O)N[C@@H](CCCNC(=N)N)C(=O)N[C@@H](Cc1c[nH]cn1)C(=O)N[C@@H](CCCNC(=N)N)C(=O)O [C18-(HR)4] (Oleoyl-HRHRHRHR-OH) | not toxic | not toxic | mild cytotoxicity | mild cytotoxicity | cytotoxicity (in words) ([1]; SK-OV-3, up to / at 50 µM peptide, listed as C18): did not show cytotoxicity; cytotoxicity (in words) ([2]; up to / at 50 µM peptide, listed as C18): did not show cytotoxicity
